From ChEMBL document CHEMBL4715709, “Synthesis and evaluation of anticonvulsant properties of new N-Mannich bases derived from 3-(1-phenylethyl)- and 3-benzyl-pyrrolidine-2,5-dione” (Bioorg Med Chem Lett, 2016)
Active and inactive are the calls of the source. The rule behind the calls is not given here.

Experiments:
[1] = system: Mus musculus; test: Anticonvulsant activity in ip dosed mouse assessed as protection against ScPTZ-induced epilepsy measured after 0.5 hrs by subcutaneous pentylenetetrazole test; type: functional
[2] = system: Mus musculus; test: Anti-convulsant activity in ip dosed mouse assessed as protection against psychomotor seizures measured after 0.5 hrs by 6 Hz limbic seizure test; type: functional
[3] = Neurotoxicity in ip dosed mouse assessed as minimum dose required for induction of motor impairment measured after 4 hrs by rotarod test; type: toxicity, organism-based; conditions: in vivo
[4] = system: Mus musculus; test: Anticonvulsant activity in mouse assessed as protection against tonic-clonic seizures at 300 mg/kg, ip measured after 0.5 hrs by maximal electroshock seizure test; type: functional, organism-based
[5] = system: Mus musculus; test: Anticonvulsant activity in mouse assessed as protection against tonic-clonic seizures at 300 mg/kg, ip measured after 4 hrs by maximal electroshock seizure test; type: functional, organism-based
[6] = system: Mus musculus; test: Anticonvulsant activity in mouse assessed as protection against ScPTZ-induced epilepsy at 300 mg/kg, ip measured after 0.5 hrs by subcutaneous pentylenetetrazole test; type: functional, organism-based
[7] = system: Mus musculus; test: Anticonvulsant activity in mouse assessed as protection against ScPTZ-induced epilepsy at 300 mg/kg, ip measured after 4 hrs by subcutaneous pentylenetetrazole test; type: functional, organism-based
[8] = Neurotoxicity in mouse assessed as induction of motor impairment at 300 mg/kg, ip measured after 0.5 hrs by rotarod test; type: toxicity, organism-based; conditions: in vivo
[9] = system: Mus musculus; test: Anticonvulsant activity in ip dosed mouse assessed as minimum dose required for protection against tonic-clonic seizures measured after 4 hrs by maximal electroshock seizure test; type: functional
[10] = Neurotoxicity in mouse assessed as induction of motor impairment at 300 mg/kg, ip measured after 4 hrs by rotarod test; type: toxicity, organism-based; conditions: in vivo
[11] = system: Mus musculus; test: Anticonvulsant activity in ip dosed mouse assessed as minimum dose required for protection against tonic-clonic seizures measured after 0.5 hrs by maximal electroshock seizure test; type: functional
[12] = system: Mus musculus; test: Anticonvulsant activity in ip dosed mouse assessed as minimum dose required for protection against ScPTZ-induced epilepsy measured after 0.5 hrs by subcutaneous pentylenetetrazole test; type: functional
[13] = system: Mus musculus; test: Anticonvulsant activity in ip dosed mouse assessed as minimum dose required for protection against ScPTZ-induced epilepsy measured after 4 hrs by subcutaneous pentylenetetrazole test; type: functional
[14] = Neurotoxicity in ip dosed mouse assessed as minimum dose required for induction of motor impairment measured after 0.5 hrs by rotarod test; type: toxicity, organism-based; conditions: in vivo
[15] = system: Mus musculus; test: Anti-convulsant activity in mouse assessed as protection of animals against psychomotor seizures at 100 mg/kg, ip measured after 0.5 hrs by 6 Hz limbic seizure test; type: functional
[16] = system: Mus musculus; test: Anti-convulsant activity in mouse assessed as protection of animals against psychomotor seizures at 100 mg/kg, ip measured after 4 hrs by 6 Hz limbic seizure test; type: functional
[17] = Neurotoxicity activity in ip dosed mouse assessed as induction of motor impairment by rotarod test; type: toxicity, organism-based; conditions: in vivo
[18] = Protection index, ratio of TD50 for neurotoxicity in ip dosed mouse to ED50 for anticonvulsant activity in ip dosed mouse measured after 0.5 hrs by subcutaneous pentylenetetrazole test; type: toxicity, organism-based; conditions: in vivo, read-out: PI
[19] = Protection index, ratio of TD50 for neurotoxicity in ip dosed mouse to ED50 for anticonvulsant activity in ip dosed mouse measured after 0.5 hrs by 6 Hz limbic seizure test; type: toxicity, organism-based; conditions: in vivo, read-out: PI
[20] = system: Mus musculus; test: Anticonvulsant activity in ip dosed mouse assessed as protection against ScPTZ-induced epilepsy measured after 0.25 hrs by subcutaneous pentylenetetrazole test; type: functional
[21] = system: Mus musculus; test: Anti-convulsant activity in ip dosed mouse assessed as protection against psychomotor seizures measured after 0.25 hrs by 6 Hz limbic seizure test; type: functional
[22] = organism: Homo sapiens; test: Inhibition of Sodium channel site 2 (unknown origin) at 100 uM
[23] = organism: Homo sapiens; test: Inhibition of L-type calcium channel (unknown origin) at 100 uM
[24] = organism: Homo sapiens; test: Inhibition of NMDA receptor (unknown origin) at 100 uM
[25] = organism: Homo sapiens; test: Inhibition of GABAA receptor (unknown origin) at 100 uM
[26] = system: Mus musculus; test: Anticonvulsant activity in ip dosed mouse assessed as protection against ScPTZ-induced epilepsy measured after 4 hrs by subcutaneous pentylenetetrazole test; type: functional
[27] = Protection index, ratio of TD50 for neurotoxicity in ip dosed mouse to ED50 for anticonvulsant activity in ip dosed mouse measured after 4 hrs by subcutaneous pentylenetetrazole test; type: toxicity, organism-based; conditions: in vivo, read-out: PI

| Structure (SMILES) | ED50 [2] | Activity [4] | Activity [5] | Activity [6] | Activity [7] | MED=>50 [9] | Activity [10] | minimum effective dose [11] | MED=>50 [12] | MED=>50 [13] | MTD50 [14] | Activity [15] | Activity [16] | TD50 [17] | selectivity ratio at 0.5 h [19] | further results |
| --- | --- | --- | --- | --- | --- | --- | --- | --- | --- | --- | --- | --- | --- | --- | --- | --- |
| CCCC(CCC)C(=O)O [VALPROIC ACID] | 131 mg/kg | – | – | – | – | – | – | – | – | – | – | – | – | – | – | ED50 [1]: 239 mg/kg |
| O=C1CC(Cc2ccccc2)C(=O)N1CN1CCN(c2ccc(Cl)cc2)CC1 (racemic) | – | inactive | inactive | inactive | inactive | – | – | – | – | – | – | – | – | – | – | MTD50 [3]: 300 mg/kg; Activity [8]: Non-Toxic |
| CC(c1ccccc1)C1CC(=O)N(CN2CCN(c3cccc(C(F)(F)F)c3)CC2)C1=O (racemic) | – | inactive | – | inactive | inactive | 300 mg/kg | Non-Toxic | – | – | – | – | – | – | – | – | Activity [8]: Non-Toxic |
| O=C1CC(Cc2ccccc2)C(=O)N1CN1CCOCC1 (racemic) | 53 mg/kg | – | – | – | – | 300 mg/kg | Non-Toxic | 300 mg/kg | 100 mg/kg | 100 mg/kg | 300 mg/kg | 100% | 0% | 179 mg/kg | 3.37 | ED50 [1]: 87 mg/kg; selectivity ratio at 0.5 h [18]: 2.05 |
| CC(c1ccccc1)C1CC(=O)N(CN2CCN(C3CCCCC3)CC2)C1=O (racemic) | 75 mg/kg | inactive | inactive | – | inactive | – | Non-Toxic | – | 100 mg/kg | – | 300 mg/kg | 100% | 0% | 196 mg/kg | 2.61 | ED50 [1]: 101 mg/kg; selectivity ratio at 0.5 h [18]: 1.94 |
| CCC1(C)CC(=O)NC1=O (stereo unspecified) [ETHOSUXIMIDE] | – | – | – | – | – | – | – | – | – | – | – | – | – | – | – | ED50 [20]: 140 mg/kg; ED50 [21]: > 200 mg/kg |
| COC[C@@H](NC(C)=O)C(=O)NCc1ccccc1 [LACOSAMIDE] | 6 mg/kg | – | – | – | – | – | – | – | – | – | – | – | – | – | 5.66 | – |
| CN1CCN(CN2C(=O)CC(Cc3ccccc3)C2=O)CC1.Cl (racemic) | 65 mg/kg | – | inactive | – | – | – | Non-Toxic | 300 mg/kg | 100 mg/kg | 300 mg/kg | – | 66% | 0% | 324 mg/kg | 5 | ED50 [1]: 95 mg/kg; selectivity ratio at 0.5 h [18]: 3.41; Activity [8]: Non-Toxic |
| O=C1CC(Cc2ccccc2)C(=O)N1CN1CCN(c2cccc(C(F)(F)F)c2)CC1 (racemic) | – | – | – | inactive | inactive | 300 mg/kg | Non-Toxic | 300 mg/kg | – | – | 300 mg/kg | – | – | – | – | – |
| CC(c1ccccc1)C1CC(=O)N(CN2CCN(C)CC2)C1=O.Cl (racemic) | 36 mg/kg | – | inactive | – | – | – | Non-Toxic | 300 mg/kg | 30 mg/kg | 300 mg/kg | 300 mg/kg | 100% | 0% | 229 mg/kg | 6.36 | ED50 [1]: 39 mg/kg; selectivity ratio at 0.5 h [18]: 5.87; inhibition [22]: < 50%; inhibition [23]: < 50%; inhibition [24]: < 50%; inhibition [25]: < 50% |
| CC(c1ccccc1)C1CC(=O)N(CN2CCOCC2)C1=O (racemic) | – | – | – | inactive | inactive | 300 mg/kg | Non-Toxic | 300 mg/kg | – | – | 300 mg/kg | – | – | – | – | – |
| Cl.O=C1CC(Cc2ccccc2)C(=O)N1CN1CCN(CCO)CC1 (racemic) | 71 mg/kg | – | inactive | inactive | – | – | Non-Toxic | 300 mg/kg | – | 300 mg/kg | 300 mg/kg | 100% | 0% | 344 mg/kg | 4.85 | – |
| CC(c1ccccc1)C1CC(=O)N(CN2CCN(CCO)CC2)C1=O.Cl (racemic) | 30 mg/kg | – | inactive | – | – | – | Non-Toxic | 300 mg/kg | 300 mg/kg | 300 mg/kg | 300 mg/kg | 100% | 0% | 290 mg/kg | 9.66 | – |
| COc1ccccc1N1CCN(CN2C(=O)CC(C(C)c3ccccc3)C2=O)CC1 (stereo unspecified) | – | inactive | inactive | – | inactive | – | Non-Toxic | – | 30 mg/kg | – | 300 mg/kg | – | – | 128 mg/kg | – | ED50 [26]: 48 mg/kg; selectivity ratio at 4 h [27]: 2.66 |
| O=C1CC(Cc2ccccc2)C(=O)N1CN1CCN(c2ncccn2)CC1 (racemic) | – | inactive | inactive | inactive | – | – | – | – | – | 100 mg/kg | 300 mg/kg | – | – | – | – | MTD50 [3]: 300 mg/kg |
| O=C1CC(Cc2ccccc2)C(=O)N1CN1CCN(c2ccc(Cl)c(Cl)c2)CC1 (racemic) | – | inactive | – | – | – | 300 mg/kg | – | – | 300 mg/kg | 100 mg/kg | – | 0% | 0% | 246 mg/kg | – | MTD50 [3]: 300 mg/kg; ED50 [26]: 106 mg/kg; Activity [8]: Non-Toxic; selectivity ratio at 4 h [27]: 2.32 |
| CC(c1ccccc1)C1CC(=O)N(CN2CCC(Cc3ccccc3)CC2)C1=O (racemic) | – | inactive | – | inactive | inactive | 300 mg/kg | Non-Toxic | – | – | – | – | – | – | – | – | Activity [8]: Non-Toxic |
| O=C1CC(Cc2ccccc2)C(=O)N1CN1CCN(c2ccc(F)cc2)CC1 (racemic) | – | – | – | inactive | inactive | 300 mg/kg | – | 300 mg/kg | – | – | 300 mg/kg | – | – | – | – | MTD50 [3]: 300 mg/kg |
